Data as given in patent US20110028504A1, “Formulation of radioprotective alpha beta unsaturated aryl sulfones” (ONCONOVA THERAPEUTICS, INC., priority 2005, published 2011).
Marks after values point to notes of the source that are not given here.

Columns and labels:
[1] = pH stability testing at 75° C. (HPLC); type: physicochemical; conditions: for Concentration of the ON.1210.Na determined by HPLC during the stability study: 75° C.
Procedure: (§1) The drug is dissolved in different pH buffers as outlined in Table 20. One hundred mL of each solution is prepared in a volumetric flask. Each solution is filtered through a 0.22 um filter. Approximately, four mL of the above solution is placed in 5 ml ampoules and sealed by a propane torch. The pH of the solution is determined at time zero and at each time interval. All the ampoules are placed in a 75° C. constant temperature oven. Any color changes or precipitation in the solution during the sample collection is visually observed. Concentration of the drug is determined at time zero and other time intervals by HPLC.
as §1, with “prepared in volumetric flask.” for “prepared in a volumetric flask.”, “filtered through 0.22 um” for “filtered through a 0.22 um”, “by HPLC. The pH and drug content of each sample are determined.” for “by HPLC.”
The data from the pH stability study is analyzed by plotting Log (conc.) versus time.
The rate constant for the degradation is determined using a linear regression at each individual pH.

[2] = Determination of pKa from saturated solubility at different pH; type: physicochemical
Procedure: The pKa of the weakly acidic drug is determined from pH-solubility data using the equation provided below.
Where Cs=observed solubility and C0=intrinsic solubility of the compound,
Since the drug is weakly acidic, its intrinsic solubility is assumed to be the solubility at a very low pH (pH=4) where the contribution due to ionization is minimal.

Structure (SMILES): O=C([O-])c1ccc(/C=C/S(=O)(=O)Cc2ccc(Cl)cc2)cc1.[Na+] [ON.1210.Na, (E)-4-Carboxystyryl-4-chlorobenzylsulfone, Sodium Salt]
- Kobs, first order rate constant for the degradation ([1]; pH 7.4, 75° C.): 0.0037 day⁻¹
- Concentration of the ON.1210.Na determined by HPLC during the stability study ([1]; pH 7.4 buffer, 0 hours, pH of the solution 7.41): 485.952 µg/mL
- Concentration of the ON.1210.Na determined by HPLC during the stability study ([1]; pH 7.4 buffer, 1 day, pH of the solution 7.42): 485.8206 µg/mL
- Concentration of the ON.1210.Na determined by HPLC during the stability study ([1]; pH 7.4 buffer, 3 days, pH of the solution 7.52): 481.4637 µg/mL
- Concentration of the ON.1210.Na determined by HPLC during the stability study ([1]; pH 7.4 buffer, 5 days, pH of the solution 7.44): 484.009 µg/mL
- Concentration of the ON.1210.Na determined by HPLC during the stability study ([1]; pH 7.4 buffer, 10 days, pH of the solution 7.42): 473.2525 µg/mL
- Concentration of the ON.1210.Na determined by HPLC during the stability study ([1]; pH 7.4 buffer, 17 days, pH of the solution 7.41): 466.5611 µg/mL
- Concentration of the ON.1210.Na determined by HPLC during the stability study ([1]; pH 7.4 buffer, 28 days, pH of the solution 7.2): 434.5598 µg/mL
- Concentration of the ON.1210.Na determined by HPLC during the stability study ([1]; pH 7.4 buffer, 35 days, pH of the solution 7.34): 428.5503 µg/mL
- Concentration of the ON.1210.Na determined by HPLC during the stability study ([1]; pH 7.4 buffer, 42 days, pH of the solution 7.36): 416.3353 µg/mL
- Concentration of the ON.1210.Na determined by HPLC during the stability study ([1]; pH 7.4 buffer, 54 days, pH of the solution 7.31): 403.267 µg/mL
- Kobs, first order rate constant for the degradation ([1]; pH 8.0, 75° C.): 0.0064 day⁻¹
- Concentration of the ON.1210.Na determined by HPLC during the stability study ([1]; pH 8.0 buffer, 0 hours, pH of the solution 8.01): 494.8540 µg/mL
- Concentration of the ON.1210.Na determined by HPLC during the stability study ([1]; pH 8.0 buffer, 1 day, pH of the solution 8.08): 493.8002 µg/mL
- Concentration of the ON.1210.Na determined by HPLC during the stability study ([1]; pH 8.0 buffer, 3 days, pH of the solution 8.04): 485.8134 µg/mL
- Concentration of the ON.1210.Na determined by HPLC during the stability study ([1]; pH 8.0 buffer, 5 days, pH of the solution 7.98): 486.042 µg/mL
- Concentration of the ON.1210.Na determined by HPLC during the stability study ([1]; pH 8.0 buffer, 10 days, pH of the solution 7.98): 462.5487 µg/mL
- Concentration of the ON.1210.Na determined by HPLC during the stability study ([1]; pH 8.0 buffer, 17 days, pH of the solution 8.02): 441.454 µg/mL
- Concentration of the ON.1210.Na determined by HPLC during the stability study ([1]; pH 8.0 buffer, 28 days, pH of the solution 7.81): 398.9563 µg/mL
- Concentration of the ON.1210.Na determined by HPLC during the stability study ([1]; pH 8.0 buffer, 35 days, pH of the solution 7.33, new degradation product with retention time 4.52 min): 249.7589** μg/mL
- Concentration of the ON.1210.Na determined by HPLC during the stability study ([1]; pH 8.0 buffer, 42 days, pH of the solution 7.36): 378.4188 µg/mL
- Concentration of the ON.1210.Na determined by HPLC during the stability study ([1]; pH 8.0 buffer, 54 days, pH of the solution 7.9): 353.5676 µg/mL
- Kobs, first order rate constant for the degradation ([1]; pH 9.0, 75° C.): 0.0104 day⁻¹
- Concentration of the ON.1210.Na determined by HPLC during the stability study ([1]; pH 9.0 buffer, 0 hours, pH of the solution 9.02): 475.7458 µg/mL
- Concentration of the ON.1210.Na determined by HPLC during the stability study ([1]; pH 9.0 buffer, 1 day, pH of the solution 9.1): 463.3368 µg/mL
- Concentration of the ON.1210.Na determined by HPLC during the stability study ([1]; pH 9.0 buffer, 3 days, pH of the solution 9.12): 436.1314 µg/mL
- Concentration of the ON.1210.Na determined by HPLC during the stability study ([1]; pH 9.0 buffer, 5 days, pH of the solution 8.72): 422.51 µg/mL
- Concentration of the ON.1210.Na determined by HPLC during the stability study ([1]; pH 9.0 buffer, 10 days, pH of the solution 8.74): 379.1650 µg/mL
- Concentration of the ON.1210.Na determined by HPLC during the stability study ([1]; pH 9.0 buffer, 17 days, pH of the solution 8.75): 351.6448 µg/mL
- Concentration of the ON.1210.Na determined by HPLC during the stability study ([1]; pH 9.0 buffer, 28 days, pH of the solution 8.53): 304.3917 µg/mL
- Concentration of the ON.1210.Na determined by HPLC during the stability study ([1]; pH 9.0 buffer, 35 days, pH of the solution 8.46, two new degradation products with retention time of 4.52 and 3.6 minutes): 199.584*** μg/mL
- Concentration of the ON.1210.Na determined by HPLC during the stability study ([1]; pH 9.0 buffer, 42 days, pH of the solution 8.45): 300.1106 µg/mL
- Concentration of the ON.1210.Na determined by HPLC during the stability study ([1]; pH 9.0 buffer, 54 days, pH of the solution 8.47): 267.741 µg/mL
- Solubility ([2]; aqueous buffer, thermodynamic from solid, assumed to be the solubility at pH 4, read-out: intrinsic solubility): 0.154 µg/mL
- pKa ([2]; calculated from solubility at pH 5): 2.61
- pKa ([2]; calculated from solubility at pH 6): 2.33
- pKa ([2]; calculated from solubility at pH 7.4): 2.54
- pKa ([2]; calculated from solubility at pH 8): 2.96
- pKa ([2]; calculated from solubility at pH 9): 3.82
